Experimental data as given in patent US4562073A, “Penicillin derivatives” (Taiho Pharmaceutical Company Limited, priority 1982, dated 1985).
Values after ≈ are worked out from the molar mass of the structure shown.

Test system: 30 strains of coliform bacilli collected from the living body of humans
Test: MIC50/MIC70 against 30 strains of coliform bacilli
Format: cell-based
Conditions: 70% of the 30 strains; for MIC70 of ampicillin combined with present compound / MIC70 of cephalexin combined with present compound / MIC70 of mecillinam combined with present compound / MIC70 of piperacillin combined with present compound: present compound 10 μg/ml
Protocol: The MIC of ampicillin as combined with the present compound (10 μg/ml) was measured against the same bacteria. In the method, the bacteria cultivated in Mueller Hinton Broth (product of DIFCO) and diluted to 10^7 CFU/ml were inoculated into the same medium containing ampicillin and the present compound in a specific concentration, and incubated at 37° C. for 20 hours. […] The bacteria as used in the test were those capable of producing β-lactamase, among which the bacteria marked * in the table are those collected from the living body of human hosts and the others are a stock culture.
(2) Effects by antibiotics as combined with the present compound
The compounds of the present invention, ampicillin, mecillinam, piperacillin and cephalexin, each singly used, were also tested for minimal inhibitory concentration against 30 strains of coliform bacilli collected from the living body of humans. The MIC of each antibiotic as combined with the present compound (10 μg/ml) was likewise measured. Table 3 to 6 indicate the results in which MIC50 and MIC70 indicate the minimal inhibitory concentration for inhibiting the growth of 50% and 70% respectively of the strains. The MICs of the present compounds singly used were all more than 25 μg/ml.

SMILES | MIC70 of ampicillin combined with present compound | MIC70 of cephalexin combined with present compound | MIC70 of mecillinam combined with present compound | MIC70 of piperacillin combined with present compound | MIC70, ampicillin singly used
C[C@]1(Cn2cc(C(=O)O)nn2)[C@H](C(=O)O)N2C(=O)C[C@H]2S1(=O)=O [Compound 16, dipotassium 2β-(4-carboxy-1,2,3-triazol-1-yl)methyl-2α-methylpenam-3α-carboxylate-1,1-dioxide] | 6.25 µg/mL | 25 µg/mL | 0.1 µg/mL | 3.13 µg/mL | 
CC1(C)S[C@@H]2[C@H](NC(=O)[C@H](N)c3ccccc3)C(=O)N2[C@H]1C(=O)O [Ampicillin, ampicillin, reference compound] |  |  |  |  | 400 µg/mL (≈ 1140 µM)
C[C@]1(Cn2ccnn2)[C@H](C(=O)O)N2C(=O)C[C@H]2S1(=O)=O [Compound 22, sodium 2α-methyl-2β-(1,2,3-triazol-1-yl)methylpenam-3α-carboxylate-1,1-dioxide] | 6.25 µg/mL | 50 µg/mL | 0.2 µg/mL | 1.56 µg/mL | 

The next lines start with the values.

MIC70 of ampicillin combined with present compound | MIC70 of cephalexin combined with present compound | MIC70 of mecillinam combined with present compound | MIC70 of piperacillin combined with present compound | MIC70, ampicillin singly used | SMILES
50 µg/mL | 100 µg/mL | 0.39 µg/mL | 6.25 µg/mL |  | CCOC(=O)c1cn(C[C@@]2(C)[C@H](C(=O)O)N3C(=O)C[C@H]3S2(=O)=O)nn1 [Compound 7, sodium 2β-(4-ethoxycarbonyl-1,2,3-triazol-1-yl)methyl-2α-methylpenam-3α-carboxylate-1,1-dioxide]
100 µg/mL | 100 µg/mL | 0.39 µg/mL | 25 µg/mL |  | CCOC(=O)c1cnnn1C[C@@]1(C)[C@H](C(=O)O)N2C(=O)C[C@H]2S1(=O)=O [Compound 11, sodium 2β-(5-ethoxycarbonyl-1,2,3-triazol-1-yl)methyl-2α-methylpenam-3α-carboxylate-1,1-dioxide]
100 µg/mL |  | 0.39 µg/mL | 50 µg/mL |  | C[C@]1(Cn2nncc2C(=O)O)[C@H](C(=O)O)N2C(=O)C[C@H]2S1(=O)=O [Compound 17, dipotassium 2β-(5-carboxy-1,2,3-triazol-1-yl)methyl-2α-methylpenam-3α-carboxylate-1,1-dioxide]
